Laboratory results published in ChEMBL document CHEMBL1201862, “PubChem BioAssay data set” (2004).
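All cell lines were grown in 96-well plates and treated with compound for 48 hours. GI50 = concentration required for 50% inhibition of growth.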 Calls of active or inactive are those of the source. Rule as the data show it: active = GI50 up to about 1.1 µM and inactive = higher.

Key:
Test in all cases: NCI anticancer screen, dose series, 48 h
UACC-257 = system: UACC-257
XF498 = system: XF498
COLO 205 = system: COLO 205
OVCAR-5 = system: OVCAR-5
SNB-19 = system: SNB-19
HOP-62 = system: HOP-62
OVCAR-8 = system: OVCAR-8
CCRF-CEM = system: CCRF-CEM
NCI-H23 = system: NCI-H23
Malme-3M = system: Malme-3M
K562 = system: K562
HT-29 = system: HT-29
NCI-H460 = system: NCI-H460
HL-60 = system: HL-60
MOLT-4 = system: MOLT-4
NCI-H226 = system: NCI-H226
TK-10 = system: TK-10
SK-MEL-2 = system: SK-MEL-2
HOP-92 = system: HOP-92
SR = system: SR
M14 = system: M14
HOP-18 = system: HOP-18
SN12C = system: SN12C
SF-539 = system: SF-539
LOX IMVI = system: LOX IMVI
A549 = system: A549
DMS-273 = system: DMS-273
KM12 = system: KM12
OVCAR-3 = system: OVCAR-3
EKVX = system: EKVX
SK-OV-3 = system: SK-OV-3
HCT-15 = system: HCT-15
KM-20L2 = system: KM-20L2
SF-295 = system: SF-295
OVCAR-4 = system: OVCAR-4
RXF 393 = system: RXF 393
UO-31 = system: UO-31
DMS-114 = system: DMS-114
ACHN = system: ACHN
DLD-1 = system: DLD-1
CAKI-1 = system: CAKI-1
SNB-78 = system: SNB-78
UACC-62 = system: UACC-62
786-0 = system: 786-0
SF-268 = system: SF-268
NCI-H522 = system: NCI-H522
SK-MEL-5 = system: SK-MEL-5
RPMI-8226 = system: RPMI-8226
A498 = system: A498
HCC 2998 = system: HCC 2998
SK-MEL-28 = system: SK-MEL-28
U-251 = system: U-251
HCT-116 = system: HCT-116
LXFL 529 = system: LXFL 529
IGROV-1 = system: IGROV-1
M19-MEL = system: M19-MEL
SW-620 = system: SW-620
SNB-75 = system: SNB-75

Measured: GI50

CCCCCCCCC(=O)NCCCNCCCNC(=O)CCCCCCCC
inactive: UACC-257 7.1 µM | XF498 3.18 µM | COLO 205 4.88 µM | OVCAR-5 15.2 µM | SNB-19 19.1 µM | HOP-62 13.8 µM | OVCAR-8 14.9 µM | CCRF-CEM 3.28 µM | NCI-H23 15.7 µM | Malme-3M 12.6 µM | K562 2.18 µM | HT-29 2.92 µM | NCI-H460 2.54 µM | HL-60 2.11 µM | MOLT-4 3.4 µM | NCI-H226 17.9 µM | TK-10 15.1 µM | SK-MEL-2 3.25 µM | HOP-92 3.85 µM | SR 2.62 µM | M14 2.07 µM | HOP-18 11.9 µM | SN12C 6.19 µM | SF-539 15.7 µM | LOX IMVI 1.77 µM | A549 14.3 µM | DMS-273 2.56 µM | KM12 2.01 µM | OVCAR-3 15.5 µM | EKVX 14.9 µM | SK-OV-3 14.3 µM | KM-20L2 2.53 µM | SF-295 5.65 µM | OVCAR-4 14.7 µM | RXF 393 8.89 µM | UO-31 13.2 µM | DMS-114 3.78 µM | ACHN 5.75 µM | DLD-1 2.93 µM | CAKI-1 13 µM | SNB-78 10.9 µM | UACC-62 5.79 µM | 786-0 1.86 µM | SF-268 10.2 µM | NCI-H522 5.05 µM | SK-MEL-5 3.82 µM | RPMI-8226 3.23 µM | A498 16.9 µM | HCC 2998 2.84 µM | SK-MEL-28 12.3 µM | U-251 3.25 µM | HCT-116 5.04 µM | LXFL 529 3.35 µM | IGROV-1 4.35 µM | M19-MEL 3.93 µM | SW-620 2.54 µM
14.7 µM: HCT-15

COC(=O)c1nc(NN)cc(O)c1CCCCCc1c(O)nc(NN)nc1C(=O)OC
inactive: UACC-257 > 100 µM | XF498 > 100 µM | COLO 205 > 77.8 µM | OVCAR-5 > 100 µM | SNB-19 > 100 µM | HOP-62 > 100 µM | OVCAR-8 > 100 µM | CCRF-CEM > 100 µM | NCI-H23 > 100 µM | SNB-75 > 100 µM | Malme-3M > 100 µM | K562 > 100 µM | HT-29 > 100 µM | NCI-H460 > 100 µM | HL-60 > 100 µM | MOLT-4 > 100 µM | NCI-H226 > 100 µM | TK-10 > 100 µM | SK-MEL-2 > 100 µM | HOP-92 > 100 µM | M14 > 100 µM | HOP-18 > 100 µM | SN12C > 100 µM | SF-539 > 100 µM | LOX IMVI > 100 µM | A549 > 100 µM | DMS-273 > 100 µM | KM12 > 100 µM | OVCAR-3 > 100 µM | EKVX > 100 µM | SK-OV-3 > 100 µM | KM-20L2 > 100 µM | SF-295 > 100 µM | OVCAR-4 > 100 µM | RXF 393 > 100 µM | UO-31 > 100 µM | DMS-114 > 95.1 µM | ACHN > 100 µM | DLD-1 > 100 µM | CAKI-1 > 100 µM | SNB-78 > 100 µM | UACC-62 > 100 µM | 786-0 > 100 µM | SF-268 > 100 µM | NCI-H522 > 100 µM | SK-MEL-5 > 100 µM | RPMI-8226 72.4 µM | A498 > 100 µM | HCC 2998 > 100 µM | SK-MEL-28 > 100 µM | U-251 > 100 µM | HCT-116 > 100 µM | LXFL 529 > 100 µM | IGROV-1 > 100 µM | M19-MEL > 100 µM | SW-620 > 59.3 µM
> 100 µM: HCT-15
